Results: patent US10155777B2, “Trans-cycloheptenes and hetero-trans-cycloheptenes for bioorthogonal coupling” (UNIVERSITY OF DELAWARE, priority 2015, dated 2018)

Experiment: Rate of tetrazine ligation, by restoring of fluorescence, stopped-flow spectrophotometer
Settings: 9:1 H2O:MeOH at 25° C., low concentration
From the text: The rate of the reaction between (E)-Si-(4-hydroxybutyl)-Si-methyl-5-silacycloheptene and tetramethylrhodamine-conjugated dipyridyl tetrazine was studied. The results are shown in Scheme 2. With a rate constant that exceeds 10^7 M^−1s^−1 (Scheme 2), (E)-Si-(4-hydroxybutyl)-Si-methyl-5-silacycloheptene is the most reactive dienophile to date for bioorthogonal applications. As the reaction was too rapid for reliable rate determination by UV-vis kinetics, the inventors determined the rate of the reaction by the restoring of fluorescence after tetrazine ligation at low concentration in 9:1 H2O:MeOH at 25° C. by using an SX 18MV-R stopped-flow spectrophotometer (Applied Photophysics Ltd.). This is depicted in Scheme 4.

C[Si]1(CCCCO)CCC=CCC1 [(E)-Si-(4-hydroxybutyl)-Si-methyl-5-silacycloheptene]
rate constant of reaction with tetrazine: exceeds 10^7 M^−1s^−1
